Test results reported in article PMC6291527, “A Nanostructured Lipid System to Improve the Oral Bioavailability of Ruthenium(II) Complexes for the Treatment of Infections Caused by Mycobacterium tuberculosis” (Frontiers in Microbiology, 2018).
Converted amounts (≈) assume the structure as drawn.

Columns and labels:
Assay in all cases: microbe, parasite or virus in culture
Assay type in all cases: cell-based, Mycobacterium tuberculosis
[1] = system: M. tuberculosis clinical isolate CF158; settings: for MIC90 of the Compounds, isolate CF158: REMA, CF158 resistant to INH and RIF, NL = not loaded (DMSO), L = loaded into NLS; for MIC90: Mycobacterium tuberculosis, read-out: MIC90 of the Compounds, isolate CF158
[2] = system: M. tuberculosis clinical isolate CF169; settings: for MIC90 of the Compounds, isolate CF169: REMA, CF169 resistant to INH and RIF, NL = not loaded (DMSO), L = loaded into NLS; for MIC90: Mycobacterium tuberculosis, read-out: MIC90 of the Compounds, isolate CF169
[3] = system: M. tuberculosis clinical isolate CF100; settings: for MIC90 of the Compounds, isolate CF100: REMA, CF100 resistant to INH, NL = not loaded (DMSO), L = loaded into NLS; for MIC90: Mycobacterium tuberculosis, read-out: MIC90 of the Compounds, isolate CF100

Row | Compound | MIC90 of the Compounds, isolate CF158 [1] | MIC90 of the Compounds, isolate CF169 [2] | MIC90 of the Compounds, isolate CF100 [3] | MIC90 [1] [µg/mL] | MIC90 [2] [µg/mL] | MIC90 [3] [µg/mL]
1 | [Ru(pic)(dppe)(phen)]PF6 [SCAR7] | 3.0 µg/mL | 4.4 µg/mL | 7.3^∗ μg mL^-1 | – | – | –
2 | NC[C@@H]1O[C@@H](O[C@H]2[C@H](O)[C@@H](O[C@H]3O[C@H](CO)[C@@H](O)[C@H](N)[C@H]3O)[C@H](N)C[C@@H]2N)[C@@H](O)[C@H](O)[C@H]1O [KAN] | 2.8 µg/mL | 1.5 µg/mL | 7.8 µg/mL | – | – | –
3 | [Ru(pic)(dppb)(bipy)]PF6 [SCAR1] | 2.6^∗ μg mL^-1 | 2.9^∗ μg mL^-1 | 10.9 µg/mL | – | – | –
4 | [Ru(pic)(dppb)(phen)]PF6 [SCAR4] | 2.7 µg/mL | 3.0 µg/mL | 5.4 µg/mL | – | – | –
5 | CO[C@H]1/C=C/O[C@@]2(C)Oc3c(C)c(O)c4c(O)c(c(/C=N/N5CCN(C)CC5)c(O)c4c3C2=O)NC(=O)/C(C)=C\C=C\[C@H](C)[C@H](O)[C@@H](C)[C@@H](O)[C@@H](C)[C@H](OC(C)=O)[C@@H]1C [RIF, rifampicin] | >50 µg/mL | >50 µg/mL | – | > 50 | > 50 | < 0.195
6 | CC1COc2c(N3CCN(C)CC3)c(F)cc3c(=O)c(C(=O)O)cn1c23 (stereo not shown) [OFL, ofloxacin] | – | – | – | 0.7 (≈ 1.94 µM) | 11.5 (≈ 31.8 µM) | 0.9 (≈ 2.49 µM)
7 | Cc1ccnc(-c2cc(C)ccn2)c1.F[P-](F)(F)(F)(F)F.O=C([O-])c1ccccn1.[Ru+2].c1ccc(P(CCCCP(c2ccccc2)c2ccccc2)c2ccccc2)cc1 [SCAR2, [Ru(pic)(dppb)(Me-bipy)]PF6] | 1.6^∗ μg mL^-1 | 2.6^∗ μg mL^-1 | 5.7 µg/mL | – | – | –
8 | NCC[C@H](O)C(=O)N[C@@H]1C[C@H](N)[C@@H](O[C@H]2O[C@H](CN)[C@@H](O)[C@H](O)[C@H]2O)[C@H](O)[C@H]1O[C@H]1O[C@H](CO)[C@@H](O)[C@H](N)[C@H]1O [AMI, amikacin] | – | – | – | 0.6 (≈ 1.02 µM) | 0.6 (≈ 1.02 µM) | 0.7 (≈ 1.2 µM)
9 | NNC(=O)c1ccncc1 [INH, isoniazid] | >50 µg/mL | – | >50 µg/mL | > 50 | > 50 | > 50
10 | F[P-](F)(F)(F)(F)F.O=C([O-])c1ccccn1.[Ru+2].c1ccc(P(CCP(c2ccccc2)c2ccccc2)c2ccccc2)cc1.c1ccc(P(CCP(c2ccccc2)c2ccccc2)c2ccccc2)cc1 [SCAR5, cis-[Ru(pic)(dppe)2]PF6] | 2.9^∗ μg mL^-1 | 2.9^∗ μg mL^-1 | 5.1 µg/mL | – | – | –
11 | COc1c(N2CCNC(C)C2)c(F)cc2c(=O)c(C(=O)O)cn(C3CC3)c12 (stereo not shown) [GAT, gatifloxacin] | – | – | – | 0.2 (≈ 0.533 µM) | 1.2 (≈ 3.2 µM) | 0.5 (≈ 1.33 µM)
